Measurements as given in ChEMBL document CHEMBL1201862, “PubChem BioAssay data set” (2004).
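Results reflect a 48-hour exposure of cells in 96-well plates to compound at five concentrations. GI50 is the concentration that inhibits growth by half.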 Activity calls are given as the source filed them. No stated cut-off is given here; in the data, active = GI50 up to about 1.1 µM and inactive = higher.

Assays:
Assay in all cases: growth of human tumour cells (NCI), 48 h
OVCAR-4 = tested on: OVCAR-4
RXF 393 = tested on: RXF 393
DMS-114 = tested on: DMS-114
A549 = tested on: A549
RPMI-8226 = tested on: RPMI-8226
LXFL 529 = tested on: LXFL 529
SK-MEL-2 = tested on: SK-MEL-2
COLO 205 = tested on: COLO 205
UO-31 = tested on: UO-31
HCT-116 = tested on: HCT-116
DMS-273 = tested on: DMS-273
SNB-19 = tested on: SNB-19
SF-539 = tested on: SF-539
UACC-62 = tested on: UACC-62
A498 = tested on: A498
KM-20L2 = tested on: KM-20L2
SN12C = tested on: SN12C
HL-60 = tested on: HL-60
UACC-257 = tested on: UACC-257
OVCAR-5 = tested on: OVCAR-5
CCRF-CEM = tested on: CCRF-CEM
HT-29 = tested on: HT-29
MOLT-4 = tested on: MOLT-4
SW-620 = tested on: SW-620
IGROV-1 = tested on: IGROV-1
TK-10 = tested on: TK-10
K562 = tested on: K562
NCI-H226 = tested on: NCI-H226
SF-268 = tested on: SF-268
ACHN = tested on: ACHN
SR = tested on: SR
SNB-78 = tested on: SNB-78
SK-OV-3 = tested on: SK-OV-3
KM12 = tested on: KM12
LOX IMVI = tested on: LOX IMVI
U-251 = tested on: U-251
XF498 = tested on: XF498
DLD-1 = tested on: DLD-1
NCI-H522 = tested on: NCI-H522
786-0 = tested on: 786-0
HOP-62 = tested on: HOP-62
M14 = tested on: M14
NCI-H23 = tested on: NCI-H23
EKVX = tested on: EKVX
HCC 2998 = tested on: HCC 2998
M19-MEL = tested on: M19-MEL
HOP-92 = tested on: HOP-92
NCI-H460 = tested on: NCI-H460
SNB-75 = tested on: SNB-75
SK-MEL-28 = tested on: SK-MEL-28
HCT-15 = tested on: HCT-15
CAKI-1 = tested on: CAKI-1
SK-MEL-5 = tested on: SK-MEL-5
OVCAR-8 = tested on: OVCAR-8
SF-295 = tested on: SF-295

**Q.** Which results are given for `CC1(n2nc(-c3ccccc3)n(-c3ccccc3)c2=O)CSC1`?
**A.** GI50 (OVCAR-4): > 100 µM (inactive); GI50 (RXF 393): > 100 µM (inactive); GI50 (DMS-114): 69.5 µM (inactive); GI50 (A549): > 100 µM (inactive); GI50 (RPMI-8226): > 100 µM (inactive); GI50 (LXFL 529): > 100 µM (inactive); GI50 (SK-MEL-2): > 100 µM (inactive); GI50 (COLO 205): > 100 µM (inactive); GI50 (UO-31): > 100 µM (inactive); GI50 (HCT-116): > 100 µM (inactive); GI50 (DMS-273): 82.4 µM (inactive); GI50 (SNB-19): > 100 µM (inactive); GI50 (SF-539): > 100 µM (inactive); GI50 (UACC-62): > 100 µM (inactive); GI50 (A498): 38.2 µM (inactive); GI50 (KM-20L2): > 100 µM (inactive); GI50 (SN12C): > 100 µM (inactive); GI50 (HL-60): > 100 µM (inactive); GI50 (UACC-257): > 100 µM (inactive); GI50 (OVCAR-5): > 100 µM (inactive); GI50 (CCRF-CEM): > 100 µM (inactive); GI50 (HT-29): > 100 µM (inactive); GI50 (MOLT-4): > 100 µM (inactive); GI50 (SW-620): > 100 µM (inactive); GI50 (IGROV-1): > 100 µM (inactive); GI50 (TK-10): > 100 µM (inactive); GI50 (K562): > 100 µM (inactive); GI50 (NCI-H226): > 100 µM (inactive); GI50 (SF-268): > 100 µM (inactive); GI50 (ACHN): > 100 µM (inactive); GI50 (SR): > 100 µM (inactive); GI50 (SNB-78): > 100 µM (inactive); GI50 (SK-OV-3): > 100 µM (inactive); GI50 (KM12): > 100 µM (inactive); GI50 (LOX IMVI): > 100 µM (inactive); GI50 (U-251): > 100 µM (inactive); GI50 (XF498): 58.9 µM (inactive); GI50 (DLD-1): > 100 µM (inactive); GI50 (NCI-H522): > 100 µM (inactive); GI50 (786-0): > 100 µM (inactive); GI50 (HOP-62): > 100 µM (inactive); GI50 (M14): > 100 µM (inactive); GI50 (NCI-H23): > 100 µM (inactive); GI50 (EKVX): > 100 µM (inactive); GI50 (HCC 2998): > 100 µM (inactive); GI50 (M19-MEL): > 100 µM (inactive); GI50 (HOP-92): > 100 µM (inactive); GI50 (NCI-H460): > 100 µM (inactive); GI50 (SNB-75): > 100 µM (inactive); GI50 (SK-MEL-28): > 100 µM (inactive); GI50 (HCT-15): > 100 µM; GI50 (CAKI-1): > 100 µM (inactive); GI50 (SK-MEL-5): > 100 µM (inactive); GI50 (OVCAR-8): > 100 µM (inactive); GI50 (SF-295): > 100 µM (inactive)
